Structures can show the parent of a compound that is named as a salt.
Key:
Assay in all cases: voltage-clamp of hemichannel currents in Xenopus oocytes
Assay type in all cases: cell-based
[1] = target: connexin26 (Cx26) hemichannel (Homo sapiens, UniProt P29033, A40V)
[2] = target: T1, connexin26 (Cx26) hemichannel (Homo sapiens, UniProt P29033, G45E)
[3] = target: connexin26 (Cx26) hemichannel (Homo sapiens, UniProt P29033, D50N)
[4] = target: connexin26 (Cx26) hemichannel (Homo sapiens, UniProt P29033, D50A)
[5] = target: T1, connexin26 (Cx26) hemichannel; remark: listed apart in the source

Row | SMILES | % [1] | IC50 [2] [µM] | % [3] [% reduction at 30µM] | % [4] | % [5] [% reduction at 30µM]
1 | O[C@@H](c1cc(C(F)(F)F)nc2c(C(F)(F)F)cccc12)[C@H]1CCCCN1 (relative stereo) [MFQ, [R*,S*]-[2,8-Bis-trifluoromethyl-quinolin-4-yl]-piperidin-2-yl-methanolhydrochloride] | 50% or better suppression at 30µM | ~16 | 69±15 | 50% or better suppression at 30µM | –
2 | OC(c1ccccn1)c1cc(C(F)(F)F)nc2c(C(F)(F)F)cccc12 (stereo not drawn) [QU026, [2,8-Bis-trifluoromethyl-quinolin-4-yl]-pyridin-2-yl-methanol] | – | – | 73±11 | – | 59±13
